Data published in patent publication US11484543B2, “Compositions and methods for diagnosing and treating diseases and disorders associated with mutant KCNJ5” (The Rockefeller University, priority 2017, dated 2022).

Columns and labels:
KCNJ5^WT [1] = molecular target: T1, KCNJ5^WT (Homo sapiens, UniProt P48544); assay: Perforated whole-cell patch clamp, KCNJ5^WT homotetramers in HEK293T cells; format: cell-based; conditions: increasing concentrations, −80 mV (FIG. 12D)
T1 construct: expressed in transfected cells
T1 sequence (P48544 1-419): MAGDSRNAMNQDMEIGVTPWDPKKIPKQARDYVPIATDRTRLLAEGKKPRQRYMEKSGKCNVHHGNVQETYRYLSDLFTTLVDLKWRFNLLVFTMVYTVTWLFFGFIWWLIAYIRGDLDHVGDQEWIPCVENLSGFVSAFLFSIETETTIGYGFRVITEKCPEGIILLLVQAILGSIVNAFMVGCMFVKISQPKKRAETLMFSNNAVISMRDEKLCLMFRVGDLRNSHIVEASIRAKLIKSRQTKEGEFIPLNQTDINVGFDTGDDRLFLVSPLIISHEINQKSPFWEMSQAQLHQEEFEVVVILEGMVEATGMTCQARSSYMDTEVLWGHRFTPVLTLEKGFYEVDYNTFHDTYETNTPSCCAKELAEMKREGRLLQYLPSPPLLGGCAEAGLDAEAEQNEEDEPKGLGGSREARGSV
Experimental: Cation currents were measured with the perforated whole cell recording technique (140 mM NaCl/5 mM KCl bath solution, 140 mM KCl pipette solution for KCNJ5^G151R; 140 mM NaCl/5 mM KCl bath solution, 140 mM KCl, 1.8 mM MgCl2 pipette solution for KCNJ5^L168R; 140 mM KCl bath and pipette solution for KCNJ5^WT). […] Errors represent standard error of the mean, N=3 to 6. […] In contrast, WT currents are not inhibited.
HEK293T cells (American Type Culture Collection) were used for transient expression of GFP-tagged KCNJ5 or KCNJ3. The cells were grown in Dulbecco's modified Eagle medium (DMEM; Invitrogen) supplemented with 10% FBS (Invitrogen) in 5% CO2 and 95% air at 37° C. […]
Within 24 hr after transfection, the cells were treated with trypsin-containing medium (TrypLE Express) (Gibco) for 10 minutes to detach the cells. […] Fluorescence signal (an indication of positive transfection) was detected with an intensified video imaging system including a SIT 68 camera (Long Island Industries). […] After forming a high resistance seal (>2 GΩ), the membrane capacitance was monitored until the whole-cell patch configuration was formed. The cell membrane capacitance was measured and compensated. The K/cation currents were measured from −80 mV to 20 mV with 20 mV steps by an Axon 200A patch-clamp amplifier. […]

KCNJ5^WT [2] = molecular target: T1, KCNJ5^WT; assay: Membrane potential assay (FLIPR dye) in inducible KCNJ5^WT HEK293 cells; format: cell-based; conditions: tested as in FIG. 7 (FIGS. 9 and 10)

| Molecule | inhibition of WT currents (KCNJ5^WT [1]) | inhibition of KCNJ5^WT by synthesized macrolide derivatives (KCNJ5^WT [2]) |
| --- | --- | --- |
| CC[C@H]1OC(=O)[C@H](C)[C@@H](O[C@H]2C[C@@](C)(OC)[C@@H](O)[C@H](C)O2)[C@H](C)[C@@H](O[C@@H]2O[C@H](C)C[C@H](N(C)C)[C@H]2O)[C@](C)(O)C[C@@H](C)/C(=N\OCOCCOC)[C@H](C)[C@@H](O)[C@]1(C)O [Roxithromycin, roxithromycin] | not inhibited |  |
| N-demethyl-N-isobutyl-8,9-anhydroerythromycin A 6,9-hemiacetal [PLUX37] |  | no inhibition |
